The record followed here is US10363229B2, “Methods and compositions for the treatment of cancer” (priority 2009, dated 2019).

The subject of one test is CEM leukemic lymphocytes. Description: Apoptosis of leukemic lymphocytes by Flow Cytometry. The test is classed as cell-based, human. How it is done: CEM leukemic lymphocytes were also incubated in the presence or absence of 10% methyl sulfone.
After 20 hours, cells were incubated with fluorescent antibodies to identify T-cells, B-cells and neutrophils, and then processed by Flow Cytometry (FIG. 15).
For orientation: Flow cytometry measures light scatter and fluorescence of single cells or particles in a stream.

The test system of a further test is melanoma cells. Description: Soft agar assay for colony formation. The test is classed as cell-based, mouse. The note with it: 2% methyl sulfone; control hundreds of colonies. How it is done:
Cells were plated on 8-35 mm plates that contained base agar with and without 2% methyl sulfone. To make base agar, 1% agar (DNA grade; Difco Bacto Agar; Becton Dickenson and Company, Sparks, Md.), was mixed in water at room temperature, melted in a microwave, and cooled to 40° C. before using. For drug plates, 1% agar was combined (1:1) with 4% methyl sulfone in 2×RPMI medium with sodium bicarbonate supplemented with 10% FBS and 5% penicillin/streptomycin. For control plates, 1% agar was combined (1:1) with 2×RMPI medium. Agar +/−2% methyl sulfone was added to appropriate 35 mm tissue culture plates and stored overnight at 4° C. The next day top agar and cells were placed on top of the base agar. Top agar was made with 0.66% agar in water. The agar was melted in a microwave, cooled, and stored at 40° C. 2×RPMI medium and 4% methyl sulfone was also stored at 40° C. Cells were trypsinized and counted for a final concentration of 5×10^3 cells/plate. Cell counts were adjusted to 2×10^5 cells/ml and 0.05 ml of the cell suspension was added to 15 ml centrifuge tubes (2 each). Base agar plates were removed from 4° C. and allowed to warm to room temperature for approximately 30 minutes prior to plating. […] Colonies were photographed and counted with a dissecting microscope. […]

Test [1] has as its system E-cadherin, β-catenin, N-cadherin and vimentin in melanoma cells. Description: Immunofluorescence of E-cadherin, β-catenin, N-cadherin and vimentin (ETM transition). The test is classed as cell-based, mouse. Particulars: 2% methyl sulfone, 1 week. Here is the method:
Cells were plated onto 12 mm coverslips. When cells grew to 60 to 70% confluence, 2% methyl sulfone was added to half the coverslips and normal medium to other half. […] PBS for 30 seconds and fixed in 37° C. 4% paraformaldehyde for 10 minutes. Cells were washed in PBS for 5 minutes and incubated in 1% Triton X-100/PBS for 5 minutes. To block nonspecific sites, chicken serum was diluted 1/20 in PBS and added to cells for 30 minutes. Cells were washed 3 times in 0.1% Triton X-100/PBS, 3 minutes each.
Rabbit anti-E-cadherin antibody (Santa Cruz Biotech, Calif.) was diluted 1/100 in 5% BSA/PBS and added to the cells on coverslips for 2 hours. Cells were washed 5 times in 0.1% Triton X-100/PBS, 3 minutes each. Secondary antibody, Alexa Fluor 488 chicken anti-rabbit was diluted 1/200 in 5% BSA/PBS and added to coverslips for one hour in the dark. Cells were washed five times in 0.1% Triton X-100/PBS, three minutes each. Cells were washed in PBS for one minute and placed in Hoechst (1 mg/ml), diluted 1/1000, for 5 minutes. Cells were washed in PBS for one minute. SlowFade was added to slides, coverslips were placed face down and sealed with nail polish. […]

Regarding methyl sulfone, in the test on CEM leukemic lymphocytes (10% methyl sulfone, 20 hours), the “CEM leukemic lymphocytes killed” value was 92%. For the same substance, the “leukemic cells induced into apoptosis” value in the test on CEM leukemic lymphocytes (summary in the description, concentration not given) was “more than 90%”. In the test on melanoma cells, the “colony formation on soft agar (anchorage-independent growth)” value is given as “no colony formation”. The “distribution of E-cadherin, β-catenin, N-cadherin and vimentin vs untreated” value in test [1] was “no significant differences”.
